Earlier results, collected in patent US20100172990A1, “BIOCOMPATIBLE MICROGELS AND APPLICATIONS THEREOF” (UNIVERSIDAD DEL PAIS VASCO, priority 2007, published 2010).

Settings: at 55° C.

## C=CN1CCCCCC1=O [VCL, N-vinylcaprolactam]
  solubility in water: approximately 88 g/L
